Results published in US11059832B2, “HPK1 inhibitors and methods of using same” (University Health Network, priority 2015, dated 2021).

The compounds below were run against T1, human HPK1 (MAP4K1) (Homo sapiens, UniProt Q92918) (assay: HPK1 inhibition assay (indirect ELISA)). Details: GST-HPK1 0.6 nM, 12 μM ATP; read-out: IC50 Range HPK1.
T1 construct: human HPK1 (aa 1-346); purchased Invitrogen PV6355
T1 sequence (Q92918 1-346): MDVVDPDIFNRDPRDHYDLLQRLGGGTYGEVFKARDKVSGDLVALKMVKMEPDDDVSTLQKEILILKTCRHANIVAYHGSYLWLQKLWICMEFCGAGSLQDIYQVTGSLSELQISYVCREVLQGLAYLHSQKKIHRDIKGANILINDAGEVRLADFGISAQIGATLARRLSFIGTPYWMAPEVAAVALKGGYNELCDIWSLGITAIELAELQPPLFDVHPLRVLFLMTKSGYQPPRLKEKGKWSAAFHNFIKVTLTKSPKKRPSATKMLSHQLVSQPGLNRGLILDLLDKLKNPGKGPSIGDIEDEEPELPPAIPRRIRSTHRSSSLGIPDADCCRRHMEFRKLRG
Format: biochemical
Method: Active HPK1 (MAP4K1) was purchased as an N-terminal GST fusion of human HPK1 (aa 1-346) from Invitrogen (cat #PV6355). HPK1 activity was measured using an indirect ELISA detection system. GST-HPK1 (0.6 nM) was incubated in the presence of 12 μM ATP (Sigma cat #A7699), 5 mM MOPS (pH 7.2), 2.5 mM β-glycerol-phosphate, 5 mM MgCl2, 0.4 mM EDTA, 1 mM EGTA, 0.05 mM DTT, in a 96 well microtitre plate pre-coated with 0.5 μg/well bovine myelin basic protein (MBP) (Millipore, cat #13-110). The reaction was allowed to proceed for 30 min, followed by 5 washes of the plate with Wash Buffer (phosphate buffered saline supplemented with 0.2% Tween 20), and incubation for 30 min with a 1:3000 dilution of anti-phospho-threonine rabbit polyclonal antibody (Cell Signaling cat #9381). The plate was washed 5 times with wash buffer, incubated for 30 min in the presence of goat anti-rabbit horse radish peroxidase conjugate (BioRad cat #1721019, 1:3000 concentration), washed an additional 5 times with wash buffer, and incubated in the presence of TMB substrate (Sigma cat #T0440). The colorimetric reaction was allowed to continue for 5 min, followed by addition of stop solution (0.5 N H2SO4), and quantified by detection at 450 nm with a monochromatic plate reader (Molecular Devices M5).
Compound inhibition was determined at either a fixed concentration (10 μM) or at a variable inhibitor concentration (typically 50 μM to 0.1 μM in a 10 point dose response titration). Compounds were pre-incubated in the presence of enzyme for 15 min prior to addition of ATP and the activity remaining quantified using the above described activity assay. The % inhibition of a compound was determined using the following formula; % inhibition=100×(1−(experimental value−background value)/(high activity control−background value)). The IC50 value was determined using a non-linear 4 point logistic curve fit (XLfit4, IDBS) with the formula; (A+(B/(1+((x/C)^D)))), where A=background value, B=range, C=inflection point, D=curve fit parameter.

Row | IC50 | Compound
1 | > 500 nM | CN1CCN(c2ccc3nc(-c4c(N5CCOCC5)c5sccc5[nH]c4=O)[nH]c3c2)CC1 [Example A49, 6-(6-(4-methylpiperazin-1-yl)-1H-benzo[d]imidazol-2-yl)-7-morpholinothieno[3,2-b]pyridin-5(4H)-one]
2 | ≤ 50 nM | CN1CCN(c2ccc3nc(-c4c(NCCN5CCOCC5)c5cscc5[nH]c4=O)[nH]c3c2)CC1 [Example A26, 3-(6-(4-methylpiperazin-1-yl)-1H-benzo[d]imidazol-2-yl)-4-((2-morpholinoethyl)amino) thieno[3,4-b]pyridin-2(1H)-one]
3 | > 500 nM | Cc1csc2[nH]c(=O)c(-c3nc4ccc(N5CCN(C)CC5)cc4[nH]3)c(NC3CCOCC3)c12 [Example A20, 3-methyl-5-(6-(4-methylpiperazin-1-yl)-1H-benzo[d]imidazol-2-yl)-4-((tetrahydro-2H-pyran-4-yl)amino)thieno[2,3-b]pyridin-6(7H)-one]
4 | > 500 nM | CN1CCN(c2ccc3nc(-c4c(N5CCC(O)CC5)c5sccc5[nH]c4=O)[nH]c3c2)CC1 [Example A50, 7-(4-hydroxypiperidin-1-yl)-6-(6-(4-methylpiperazin-1-yl)-1H-benzo[d]imidazol-2-yl)thieno[3,2-b]pyridin-5(4H)-one]
5 | ≤ 50 nM | COCCNc1c(-c2nc3ccc(N4CCN(C)CC4)cc3[nH]2)c(=O)[nH]c2sccc12 [Example A74, 4-((2-methoxyethyl)amino)-5-(6-(4-methylpiperazin-1-yl)-1H-benzo[d]imidazol-2-yl)thieno[2,3-b]pyridin-6(7H)-one]
6 | ≤ 50 nM | CN1CCN(c2ccc3nc(-c4c(NC5CC5)c5sccc5[nH]c4=O)[nH]c3c2)CC1 [Example A63, 7-(cyclopropylamino)-6-(6-(4-methylpiperazin-1-yl)-1H-benzo[d]imidazol-2-yl)thieno[3,2-b]-pyridin-5(4H)-one 2,2,2-trifluroaceatate]
7 | ≤ 50 nM | CN1CCN(c2ccc3nc(-c4c(N[C@H]5C[C@@H](O)C5)c5ccsc5[nH]c4=O)[nH]c3c2)CC1 [Example A12, 4-(((1s,3s)-3-hydroxycyclobutyl)amino)-5-(6-(4-methylpiperazin-1-yl)-1H-benzo[d]imidazol-2-yl)thieno[2,3-b]pyridin-6(7H)-one]
8 | 50 to 500 nM | Cc1csc2[nH]c(=O)c(-c3nc4ccc(N5CCN(C)CC5)cc4[nH]3)c(NC3CCCC3)c12 [Example A19, 4-(cyclopentylamino)-3-methyl-5-(6-(4-methylpiperazin-1-yl)-1H-benzo[d]imidazol-2-yl)thieno[2,3-b]pyridin-6(7H)-one]
9 | ≤ 50 nM | CN1CCN(c2ccc3nc(-c4c(N[C@H]5CCOC5)c5ccsc5[nH]c4=O)[nH]c3c2)CC1 [Example A11, (S)-5-(6-(4-methylpiperazin-1-yl)-1H-benzo[d]imidazol-2-yl)-4-((tetrahydrofuran-3-yl)amino)thieno[2,3-b]pyridin-6(7H)-one]
10 | > 500 nM | Cc1cc2[nH]c(=O)c(-c3nc4ccc(N5CCN(C)CC5)cc4[nH]3)c(N)c2s1 [Example A32, 7-amino-2-methyl-6-(6-(4-methylpiperazin-1-yl)-1H-benzo[d]imidazol-2-yl)thieno[3,2-b]pyridin-5(4H)-one]
11 | ≤ 50 nM | CN1CCN(c2ccc3nc(-c4c(O)c5sccc5[nH]c4=O)[nH]c3c2)CC1 [Example A29, 7-hydroxy-6-(6-(4-methylpiperazin-1-yl)-1H-benzo[d]imidazol-2-yl)thieno[3,2-b]pyridin-5(4H)-one]
12 | ≤ 50 nM | CN1CCN(c2ccc3nc(-c4c(N[C@@H]5CCC[C@H]5O)c5cscc5[nH]c4=O)[nH]c3c2)CC1 [Example A75, 4-(((1R,2R)-2-hydroxycyclopentyl)amino)-3-(6-(4-methylpiperazin-1-yl)-1H-benzo[d]imidazol-2-yl)thieno[3,4-b]pyridin-2(1H)-one]
13 | ≤ 50 nM | CN1CCN(c2ccc3nc(-c4c(N[C@@H]5CCCOC5)c5ccsc5[nH]c4=O)[nH]c3c2)CC1 [Example A77, (R)-5-(6-(4-methylpiperazin-1-yl)-1H-benzo[d]imidazol-2-yl)-4-((tetrahydro-2H-pyran-3-yl)amino)thieno[2,3-b]pyridin-6(7H)-one]
14 | ≤ 50 nM | CN1CCN(c2ccc3nc(-c4c(NC5CCOCC5)c5cscc5[nH]c4=O)[nH]c3c2)CC1 [Example A25, 3-(6-(4-methylpiperazin-1-yl)-1H-benzo[d]imidazol-2-yl)-4-((tetrahydro-2H-pyran-4-yl)amino)thieno[3,4-b]pyridin-2(1H)-one]

Continued, compound first:

Row | Compound | IC50
15 | CC(C)[C@H](CO)Nc1c(-c2nc3ccc(N4CCN(C)CC4)cc3[nH]2)c(=O)[nH]c2sccc12 [Example A16, (R)-4-((1-hydroxy-3-methylbutan-2-yl)amino)-5-(6-(4-methylpiperazin-1-yl)-1H-benzo[d]imidazol-2-yl)thieno[2,3-b]pyridin-6(7H)-one] | ≤ 50 nM
16 | Cc1cc2c(N)c(-c3nc4ccc(N5CCN(C)CC5)cc4[nH]3)c(=O)[nH]c2s1 [Example A3, 4-amino-2-methyl-5-(6-(4-methylpiperazin-1-yl)-1H-benzo[d]imidazol-2-yl)thieno[2,3-b]pyridin-6(7H)-one] | > 500 nM
17 | Nc1c(-c2nc3cc(F)c(N4CCOCC4)cc3[nH]2)c(=O)[nH]c2sccc12 [Example A56, 4-amino-5-(5-fluoro-6-morpholino-1H-benzo[d]-imidazol-2-yl)-thieno-[2,3b]-pyridin-6(7H)-one] | ≤ 50 nM
18 | CN1CCN(c2ccc3nc(-c4c(NCc5ccccn5)c5cscc5[nH]c4=O)[nH]c3c2)CC1 [Example A28, 3-(6-(4-methylpiperazin-1-yl)-1H-benzo[d]imidazol-2-yl)-4-((pyridin-2-ylmethyl)amino)thieno[3,4-b]pyridin-2(1H)-one] | ≤ 50 nM
19 | Nc1c(-c2nc3cc(C(=O)N4CCOCC4)ccc3[nH]2)c(=O)[nH]c2sccc12 [Example A62, 4-amino-5-(5-(morpho-line-4-carbonyl)-1H-benzo-[d]imidazol-2-yl)thieno[2,3-b]pyridin-6(7H)-one] | 50 to 500 nM
20 | CCOc1csc2[nH]c(=O)c(-c3nc4ccc(N5CCN(C)CC5)cc4[nH]3)c(N)c12 [Example A6, 4-amino-3-ethoxy-5-(6-(4-methylpiperazin-1-yl)-1H-benzo[d]imidazol-2-yl)thieno[2,3-b]pyridin-6(7H)-one] | 50 to 500 nM
21 | C[C@@H]1CN(c2ccc3nc(-c4c(NC5CCCC5)c5sccc5[nH]c4=O)[nH]c3c2)C[C@H](C)N1C [Example A47, 7-(cyclopentylamino)-6-(6-(3r,5s)-rel-3,4,5-trimethylpiper-azin-1-yl)-1H-benzo[d]imidazol-2-yl)thieno[3,2-b]pyridin-5(4H)-one] | ≤ 50 nM
22 | C[C@@H]1CN(c2ccc3nc(-c4c(N)c5ccsc5[nH]c4=O)[nH]c3c2)C[C@H](C)O1 [Example A76, 4-amino-5-(6-((2S,6R)-2,6-dimethylmorpholino)-1H-benzo[d]imidazol-2-yl)thieno[2,3-b]pyridin-6(7H)-one] | ≤ 50 nM
23 | CN1CCN(C(=O)c2ccc3[nH]c(-c4c(N)c5ccsc5[nH]c4=O)nc3c2)CC1 [Example A60, 4-amino-5-(5-(4-methylpiperazine-1-carbonyl)-1H-benzo[d]imidazol-2-yl)thieno[2,3-b]-pyridin-6(7H)-one] | 50 to 500 nM
24 | C[C@@H]1CN(c2ccc3nc(-c4c(N[C@H]5CCCC[C@H]5O)c5ccsc5[nH]c4=O)[nH]c3c2)C[C@H](C)O1 [Example A73] | 50 to 500 nM

These compounds were tested against T2, LCK (Homo sapiens, UniProt P06239) (assay: LCK inhibition, FRET based Z'-LYTE Kinase Assay). Details: 25 nM LCK, 180 μM ATP; read-out: IC50 Range Lck.
T2 construct: purchased Invitrogen P3043
T2 sequence (P06239 whole entry, species assumed): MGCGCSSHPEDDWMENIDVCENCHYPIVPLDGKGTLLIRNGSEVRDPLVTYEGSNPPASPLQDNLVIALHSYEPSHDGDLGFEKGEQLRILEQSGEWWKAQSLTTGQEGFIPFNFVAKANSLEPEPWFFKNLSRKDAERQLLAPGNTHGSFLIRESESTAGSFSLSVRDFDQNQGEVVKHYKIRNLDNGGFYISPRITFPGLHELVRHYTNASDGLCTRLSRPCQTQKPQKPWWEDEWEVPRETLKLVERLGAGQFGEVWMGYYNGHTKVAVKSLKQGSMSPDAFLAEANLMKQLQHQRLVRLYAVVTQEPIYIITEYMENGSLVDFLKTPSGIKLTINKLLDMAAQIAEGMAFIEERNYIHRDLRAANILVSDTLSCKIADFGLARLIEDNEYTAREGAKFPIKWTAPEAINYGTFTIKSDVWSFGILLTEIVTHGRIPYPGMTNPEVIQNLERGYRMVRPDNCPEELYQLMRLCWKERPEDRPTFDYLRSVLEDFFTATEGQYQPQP
Format: biochemical
Method: FLT3 and LCK compound inhibition were determined using FRET based Z′-LYTE Kinase Assay Kit with Tyrosine 2 peptide as the substrate (Invitrogen cat #PV3191). […] The % inhibition values were determined according to the manufacturer's directions and IC50 values were obtained using a non-linear 4 point logistic curve fit (XLfit4, IDBS).

Row | IC50 | Compound
25 | > 500 nM | CN1CCN(c2ccc3nc(-c4c(N5CCC(O)CC5)c5sccc5[nH]c4=O)[nH]c3c2)CC1 [Example A50, 7-(4-hydroxypiperidin-1-yl)-6-(6-(4-methylpiperazin-1-yl)-1H-benzo[d]imidazol-2-yl)thieno[3,2-b]pyridin-5(4H)-one]
26 | ≤ 50 nM | Cc1cc2[nH]c(=O)c(-c3nc4ccc(N5CCN(C)CC5)cc4[nH]3)c(N)c2s1 [Example A32, 7-amino-2-methyl-6-(6-(4-methylpiperazin-1-yl)-1H-benzo[d]imidazol-2-yl)thieno[3,2-b]pyridin-5(4H)-one]
27 | 50 to 500 nM | CN1CCN(c2ccc3nc(-c4c(O)c5sccc5[nH]c4=O)[nH]c3c2)CC1 [Example A29, 7-hydroxy-6-(6-(4-methylpiperazin-1-yl)-1H-benzo[d]imidazol-2-yl)thieno[3,2-b]pyridin-5(4H)-one]
28 | 50 to 500 nM | CN1CCN(C(=O)c2ccc3[nH]c(-c4c(N)c5ccsc5[nH]c4=O)nc3c2)CC1 [Example A60, 4-amino-5-(5-(4-methylpiperazine-1-carbonyl)-1H-benzo[d]imidazol-2-yl)thieno[2,3-b]-pyridin-6(7H)-one]
